Measurements published in ChEMBL document CHEMBL1773019, “Antifibrotic constituents of Alnus firma on hepatic stellate cells” (Bioorg Med Chem Lett, 2011).
Activity calls are given as the source filed them. The rule behind the calls is not given here.

Experiments:
[1] = Antifibrotic activity against rat HSC-T6 cells assessed as inhibition of proliferation after 48 hrs by BrdU incorporation assay; type: functional, cell-based; conditions: HSC-T6, 48 h
[2] = test system: HSC-T6; assay: Induction of cell death in rat HSC-T6 cells assessed as decrease in cell viability after 48 hrs by MTT assay; type: functional, cell-based
[3] = test system: HSC-T6; assay: Induction of cell death in rat HSC-T6 cells assessed as decrease in cell viability at 100 uM by MTT assay; type: functional, cell-based; conditions: TDE = time-dependent effect
[4] = test system: HSC-T6; assay: Antiproliferative activity against rat HSC-T6 cells at 10 to 100 ug/ml after 24 to 48 hrs by BrdU incorporation assay; type: functional, cell-based
[5] = Induction of apoptosis in rat HSC-T6 cells assessed as increase in caspase-3/7 activity at 10 to 100 ug/ml after 24 to 48 hrs; type: functional
[6] = Cytotoxicity against rat HSC-T6 cells assessed as decrease in LDH release; type: cell-based
[7] = test system: HSC-T6; assay: Decrease in collagen content in rat HSC-T6 cells at 10 to 100 uM after 48 hrs by sirius red-based colorimetric assay; type: functional, cell-based
[8] = Inhibition of rat HSC-T6 cell proliferation at 100 ug/ml after 48 hrs by BrdU incorporation assay; type: functional; conditions: HSC-T6, 48 h

SMILES	IC50 [1] [µM]	Activity [2]	Activity [3]	Activity [4]	Activity [5] [%]	Activity [6]	Activity [7]	inhibition at 100 µg/mL [8] [%]
O=C(O[C@@H]1Cc2c(O)cc(O)cc2O[C@@H]1c1cc(O)c(O)c(O)c1)c1cc(O)c(O)c(O)c1 [EPIGALOCATECHIN GALLATE]	9.9							
O=C(/C=C/CCc1ccc(O)c(O)c1)CCc1ccc(O)c(O)c1 [DEHYDROHIRSUTANONOL]	14	Dose-dependent effect	tde	Active	150	Non-toxic	Dose-dependent effect	
OC[C@@]1(O)CO[C@@H](OC[C@H]2O[C@@H](O[C@H](CCCCc3ccc(O)cc3)CCc3ccc(O)cc3)[C@H](O)[C@@H](O)[C@@H]2O)[C@@H]1O	39.1							22.7
C=C(C)[C@@H]1CC[C@]2(CO)CC[C@]3(C)[C@H](CC[C@@H]4[C@@]5(C)C[C@@H](O)[C@H](OC(=O)/C=C/c6ccc(O)c(O)c6)C(C)(C)[C@@H]5CC[C@]43C)[C@@H]12	23.9	Dose-dependent effect	tde	Active	150	Non-toxic	Dose-dependent effect	
